Here are results for ten compounds from patent US20180064687A1, “PHARMACEUTICAL COMPOSITION FOR THE PREVENTION AND TREATMENT OF DISEASES ASSOCIATED WITH ELEVATED INDUCIBLE NITRIC OXIDE SYNTHASE” (AKCIJU SABIEDRIBA "OLAINFARM', priority 2015, published 2018).

Structures are written as SMILES. “Also recorded” adds a separate entry of the source. Counter-ions that a name gives are not always drawn. A value given as a limit tells only on which side of the number the result lay.

Series [1] relates to formalin-induced nociceptive responses. The settings on record: cited from earlier work; for nociceptive responses to formalin-produced peripheral neuropathy: systemic and intrathecal administration, mice and rats.
The conditions of series [2]: i.p. administration; cited from earlier work.
The test system of series [3] is iNOS gene expression. As to the kind of experiment: LPS-induced iNOS gene overexpression in brain tissue, septic shock model (quantitative RT-PCR). Format: in vivo. To be noted: mice; 50 mg/kg injected simultaneously with LPS 20 mg/kg i.p.; tissue sampled 6 h after; compared with LPS group. The protocol:
(§1) Male ICR mice weighing 25-30 g were obtained from the Laboratory of Experimental Animals, Riga Stradins University (Riga, Latvia), and housed under standard conditions (21-23° C., relative humidity 65%±10%, 12 h light-dark cycle) with unlimited access to standard food (R70 diet, Lactamin AB, Sweden) and water. The experimental procedures were performed in accordance with the guidelines reported in EU Directive 2010/63/EU and in accordance with local laws and policies; all of the procedures were approved by the Latvian Animal Protection Ethical Committee of Food and Veterinary Service in Riga, Latvia. To eliminate systematic differences between the treatment groups, the animals were randomly assigned to their respective experimental groups (12 animals in each group for formalin test and 6 animals in each group for LPS test). To avoid subjective factors in the rating process, all experimental procedures were performed in a blinded fashion.
The iNOS gene expression was stimulated by a single intraperitoneal (i.p.) injection of LPS at a dose of 20 mg/kg 6 h before the tissue sampling. Control animals received i.p. injection of saline (0.9% NaCl). […]
Brain tissue after sampling were immediately frozen in liquid nitrogen and stored at −80° C. […] Samples were diluted with water at v/v ratio of 1:20 and the quality and quantity of extracted total RNA were examined by measuring the absorbance at 230, 260 and 280 nm with a μQuant™ (BioTek) spectrophotometer. […] Quantitative RT-PCR analysis for iNOS was performed by mixing synthesized cDNA (diluted with water at v/v ratio of 1:10), appropriate primers, and SYBR® Green Master Mix (Applied Biosystems™, USA) and run in the Applied Biosystems Prism 7500 according to the manufacturer's protocol. The transcript levels for the constitutive housekeeping gene product β-actin were quantitatively measured for each sample, and PCR data were reported as the number of transcripts per number of β-actin mRNA molecules.

For series [4] the following is noted: in vivo; cited from earlier work.
In series [5] the test system is LPS-induced hypothermia. As to the kind of experiment: LPS-induced hypothermia (rectal temperature), septic shock model. It counts as in vivo. The settings on record: mice; 50 mg/kg i.p. simultaneously with LPS 20 mg/kg; 6 h after injection. The protocol:
as §1
The hypothermia was induced by an i.p. injection of LPS at a dose of 20 mg/kg. Control animals received i.p. injection of saline (0.9% NaCl). […] The rectal temperature of animals was measured using a thermometer (Thermalert TH-5, USA) at 5 min before LPS or saline injection and 6 hours after injection.

Series [6] relates to formalin-induced paw licking. In words: Formalin-induced paw licking test (formalin-induced peripheral neuropathy). Format: in vivo. The settings on record: mice, pre-treatment 50 mg/kg. The protocol: as §1
Formalin-induced licking paw test was performed as described previously by Zvejniece et al 2006 (Zvejniece L., Muceniece R., Krigere L., Dambrova M., Klusa V. Z. Pharmacol. Biochem. Behav. 2006, 85 (2),287-91). Briefly, mice were gently restrained and 30 μl of formalin solution (1.5% in saline) was injected s.c. into the plantar surface of the right hind paw, using a microsyringe with a 27-gauge needle. Each mouse was then placed in an individual clear Plexiglas observation chamber (30×20×30 cm) and the total licking time of hind paw of each mouse was registered and quantified in subsequent 5-minute intervals for 50 minutes. The recording of licking time started immediately (first phase) and lasted for 5 min. The late phase (second phase) started about 15-20 min after formalin injection and lasted up to 35 min.

Series [7] relates to NOS. To be noted: patients with septic shock, cited from earlier work.
Setting [8] is: phase II, compared to saline treated group.

Turning to `O=[N+]([O-])c1cccc2cn[nH]c12` [7-nitroindazole], in series [1], the “nociceptive responses to formalin-produced peripheral neuropathy” value is recorded as “reduces nociceptive responses”. On to `NC(=O)CN1C[C@@H](c2ccccc2)CC1=O` [(4R)-2-(4-phenyl-2-oxopyrrolidin-1-yl)acetamide], for which the “dose up to which no side effects on the body system are caused” value in series [2] is reported as not above 250 mg/kg. The “LPS-induced iNOS gene expression in brain tissue” value (shortened to “LPS-induced iNOS gene expression”) in series [3] is recorded as “highly effective; also recorded: significantly reduced”. Moreover, the excretion from body result in series [4] is “totally excreted from body in unmetabolized form”. In addition, the “LPS-induced hypothermia (rectal temperature)” value in series [5] is “significantly inhibited”. In series [6] (phase II), the “reduction of the paw licking behavior in phase II” value was 46%. In series [6] (setting [8]), the “paw licking response time in II phase” value was “significant inhibition”.

As for `NC(=O)CN1CC(c2ccccc2)CC1=O` [(4R,S)-2-(4-phenyl-2-oxopyrrolidin-1-yl)acetamide], the “LPS-induced iNOS gene expression” value in series [3] is “tendency to reduce LPS action; also recorded: did not reduce”. In series [6] (phase I, compared to saline treated group), the “paw-licking time in I phase” value was “did not reduce; also recorded: almost no effect”. Besides, the “paw licking response time in II phase” value in series [6] (setting [8]) is “did not reduce; also recorded: almost no effect”.

For the compound `NC(=O)CN1C[C@H](c2ccccc2)CC1=O` [(4S)-2-(4-phenyl-2-oxopyrrolidin-1-yl)acetamide], the “LPS-induced iNOS gene expression” value in series [3] is “absolutely inactive; also recorded: did not reduce”. Consider `N#Cc1ccc(C(=O)N2CCC3(CC2)N=C(N)c2c(F)ccc(F)c2N3)cn1` [AR-C102222], for which the “peripheral nociception in formalin-induced paw licking test II phase” value (from here on “peripheral nociception”) in series [1] is reported as “reduce peripheral nociception”. As for `COC(=O)[C@@H](N)CCCNC(=N)N[N+](=O)[O-]` [L-NAME, Nω-nitro-L-arginine methyl ester], the “results of the phase II trial in septic shock” value in series [7] (placebo-controlled double-blind study) is recorded as “promising”. Besides, the “mortality in the treatment group, phase III trial” value in series [7] (trial terminated prematurely) is “increase in mortality”. In addition, in series [1], the “nociceptive responses to formalin-produced peripheral neuropathy” value is “reduces nociceptive responses”. Take `N=C(N)NN` [aminoguanidine hydrochloride]: in series [1], the “peripheral nociception” value is “reduce peripheral nociception”.

In the case of `CN(C)CCC=C1c2ccccc2CCc2ccccc21` [amitriptyline], the “peripheral nociception” value in series [1] is “anti-nociceptive activity”. For `NCC1(CC(=O)O)CCCCC1` [gabapentin], the “peripheral nociception” value in series [1] is on record as “anti-nociceptive activity”. Consider `CC(C)C[C@H](CN)CC(=O)O` [pregabalin], for which the “peripheral nociception” value in series [1] was “anti-nociceptive activity”.
